Structures can show the parent of a compound that is named as a salt. Where two headings read alike, the source gives them in different places.
How the values were obtained:
[1] = biological target: T1, human Y4 receptor (Homo sapiens, UniProt P50391); test: ^125I-PYY binding of compounds to human Y4 receptor, stably transfected cells
Procedure: (§1) To prepare membranes from baculovirus infected cells, 2×10^7 Sf21 cells were grown in 150 mm tissue culture dishes and infected with a high-titer stock of hY5BB3.

[2] = biological target: human Y1 receptor (Homo sapiens, UniProt P25929); test: ^125I-PYY binding of compounds to human Y1 receptor, stably transfected cells
Procedure: as §1

[3] = biological target: T2, human Y2 receptor (Homo sapiens, UniProt P49146); test: ^125I-PYY binding of compounds to human Y2 receptor, stably transfected cells
T2 sequence (P49146 1-381): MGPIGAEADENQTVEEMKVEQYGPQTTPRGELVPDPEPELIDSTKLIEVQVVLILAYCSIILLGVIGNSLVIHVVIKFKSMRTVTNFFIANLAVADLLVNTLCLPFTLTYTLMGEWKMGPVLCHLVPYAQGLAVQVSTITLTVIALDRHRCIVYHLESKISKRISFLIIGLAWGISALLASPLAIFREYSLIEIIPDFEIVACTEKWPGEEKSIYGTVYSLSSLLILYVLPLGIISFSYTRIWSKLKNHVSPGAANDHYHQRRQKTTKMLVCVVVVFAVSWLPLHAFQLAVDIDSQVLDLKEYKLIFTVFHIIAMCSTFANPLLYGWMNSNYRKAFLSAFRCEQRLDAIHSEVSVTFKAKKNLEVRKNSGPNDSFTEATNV
Procedure: as §1

[4] = biological target: 5HT1D2 (Homo sapiens, UniProt P28222); test: Cross-reactivity binding, human 5HT1D2 receptor; details: for Receptor (pKi) 5HT1D2: cloned human receptor
5HT1D2, sequence (P28222 whole entry): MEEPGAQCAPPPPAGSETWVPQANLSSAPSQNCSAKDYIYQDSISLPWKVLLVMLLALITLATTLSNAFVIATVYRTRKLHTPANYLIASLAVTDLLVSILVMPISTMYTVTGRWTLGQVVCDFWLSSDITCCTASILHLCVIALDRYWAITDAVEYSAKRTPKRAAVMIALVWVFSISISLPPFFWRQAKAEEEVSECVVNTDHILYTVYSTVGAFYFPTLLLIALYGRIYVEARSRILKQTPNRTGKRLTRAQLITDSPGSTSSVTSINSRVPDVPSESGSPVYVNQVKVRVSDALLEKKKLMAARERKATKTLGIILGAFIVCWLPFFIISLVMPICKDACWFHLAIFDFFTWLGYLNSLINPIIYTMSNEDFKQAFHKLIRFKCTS

[5] = biological target: T3, human 5HT1F receptor (Homo sapiens, UniProt P30939); test: Cross-reactivity binding, human 5HT1F receptor; details: for Receptor (pKi) 5HT1F: cloned human receptor
T3 sequence (P30939 1-366): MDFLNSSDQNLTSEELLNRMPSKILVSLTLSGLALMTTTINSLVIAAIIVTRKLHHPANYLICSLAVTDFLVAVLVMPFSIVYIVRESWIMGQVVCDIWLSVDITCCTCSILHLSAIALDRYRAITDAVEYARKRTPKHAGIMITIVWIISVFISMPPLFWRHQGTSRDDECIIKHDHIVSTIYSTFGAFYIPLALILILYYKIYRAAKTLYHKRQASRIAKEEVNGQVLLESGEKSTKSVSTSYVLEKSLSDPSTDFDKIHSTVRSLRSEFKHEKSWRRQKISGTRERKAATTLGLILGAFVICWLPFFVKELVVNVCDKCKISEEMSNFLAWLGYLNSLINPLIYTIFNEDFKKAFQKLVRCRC

[6] = biological target: human 5HT1Dα receptor (Homo sapiens, UniProt P28221); test: Cross-reactivity binding, human 5HT1Dα receptor; details: for Receptor (pKi) 5HT1Dα: cloned human receptor
human 5HT1Dα receptor, sequence (P28221 whole entry): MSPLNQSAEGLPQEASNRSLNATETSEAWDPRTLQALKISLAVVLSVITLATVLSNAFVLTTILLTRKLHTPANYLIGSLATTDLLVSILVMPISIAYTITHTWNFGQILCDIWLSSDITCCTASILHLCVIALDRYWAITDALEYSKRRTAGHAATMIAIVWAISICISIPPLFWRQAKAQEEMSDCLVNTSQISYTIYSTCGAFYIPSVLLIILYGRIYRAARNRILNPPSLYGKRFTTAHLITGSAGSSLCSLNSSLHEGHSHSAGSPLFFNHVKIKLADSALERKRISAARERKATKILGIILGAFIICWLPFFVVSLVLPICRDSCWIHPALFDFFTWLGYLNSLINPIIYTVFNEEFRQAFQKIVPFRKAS

[7] = biological target: human 5HT1E receptor (Homo sapiens, UniProt P28566); test: Cross-reactivity binding, human 5HT1E receptor; details: for Receptor (pKi) 5HT1E: cloned human receptor
human 5HT1E receptor, sequence (P28566 whole entry): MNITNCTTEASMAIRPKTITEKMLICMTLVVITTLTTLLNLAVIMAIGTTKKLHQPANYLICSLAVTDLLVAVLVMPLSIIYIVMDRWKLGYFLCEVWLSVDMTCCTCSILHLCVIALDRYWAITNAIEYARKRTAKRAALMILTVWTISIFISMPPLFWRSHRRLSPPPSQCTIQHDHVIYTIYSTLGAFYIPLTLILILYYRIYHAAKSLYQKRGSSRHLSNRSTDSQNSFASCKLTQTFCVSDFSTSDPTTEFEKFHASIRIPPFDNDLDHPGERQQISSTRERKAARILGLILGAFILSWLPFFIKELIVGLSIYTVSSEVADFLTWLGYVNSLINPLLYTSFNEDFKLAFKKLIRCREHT

[8] = test system: satiated rats; test: NPY-induced food intake in satiated rats; assay type: in vivo, rat; details: 300 pmole i.c.v., p<0.05 Student-Newman-Keuls
Procedure: For these determinations food intake may be measured in normal satiated rats after intracerebroventricular application (i.c.v.) of NPY in the presence or absence of the test compound. Male Sprague Dawley rats (Ciba-Geigy AG, Sisseln, Switzerland) weighing between 180 g and 220 g are used for all experiments. The rats are individually housed in stainless steel cages and maintained on an 11:13 h light-dark cycle (lights off at 18:00 h) at a controlled temperature of 21-23° C. at all times. Water and food (NAFAG lab chow pellets NAFAG, Gossau, Switzerland) are available ad libidum.
Rats under pentobarbital anesthesia are stereotaxically implanted with a stainless steel guide cannula targeted at the right lateral ventricle. Stereotaxic coordinates, with the incisor bar set −2.0 mm below interaural line, are: −0.8 mm anterior and +1.3 mm lateral to bregma. The guide cannula is placed on the dura. […]
Food intake may be measured by placing preweighed pellets into the cages at the time of NPY injection. […] The food intake of animals treated with test compound may be calculated as a percentage of the food intake of control animals i.e., animals treated with vehicle. Alternatively, food intake for each group of animals subjected to a particular experimental condition may be expressed as the mean±S.E.M. Statistical analysis is performed by analysis of variance using the Student-Newman-Keuls test.

[9] = biological target: human α2A adrenergic receptor (Homo sapiens, UniProt P08913); test: Cross-reactivity binding, cloned human α2a receptor
[10] = biological target: human α2C adrenergic receptor (Homo sapiens, UniProt P18825); test: Cross-reactivity binding, cloned human α2c receptor
human α2C adrenergic receptor, sequence (P18825 whole entry): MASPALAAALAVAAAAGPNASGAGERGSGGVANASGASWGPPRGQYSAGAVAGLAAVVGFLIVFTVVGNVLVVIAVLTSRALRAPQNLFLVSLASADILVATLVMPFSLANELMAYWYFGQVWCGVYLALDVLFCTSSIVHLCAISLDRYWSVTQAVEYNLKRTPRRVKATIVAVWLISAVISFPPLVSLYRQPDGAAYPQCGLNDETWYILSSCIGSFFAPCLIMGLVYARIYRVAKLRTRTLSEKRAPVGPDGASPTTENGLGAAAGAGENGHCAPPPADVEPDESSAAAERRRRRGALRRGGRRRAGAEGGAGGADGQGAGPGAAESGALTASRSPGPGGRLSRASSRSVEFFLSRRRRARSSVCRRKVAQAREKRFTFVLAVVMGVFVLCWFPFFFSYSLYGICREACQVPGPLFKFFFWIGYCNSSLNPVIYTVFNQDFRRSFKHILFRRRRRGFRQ

[11] = biological target: human α2B adrenergic receptor (Homo sapiens, UniProt P18089); test: Cross-reactivity binding, cloned human α2b receptor
[12] = biological target: human α1b adrenergic receptor (Homo sapiens, UniProt P35368); test: Cross-reactivity binding, cloned human α1b receptor
human α1b adrenergic receptor, sequence (P35368 whole entry): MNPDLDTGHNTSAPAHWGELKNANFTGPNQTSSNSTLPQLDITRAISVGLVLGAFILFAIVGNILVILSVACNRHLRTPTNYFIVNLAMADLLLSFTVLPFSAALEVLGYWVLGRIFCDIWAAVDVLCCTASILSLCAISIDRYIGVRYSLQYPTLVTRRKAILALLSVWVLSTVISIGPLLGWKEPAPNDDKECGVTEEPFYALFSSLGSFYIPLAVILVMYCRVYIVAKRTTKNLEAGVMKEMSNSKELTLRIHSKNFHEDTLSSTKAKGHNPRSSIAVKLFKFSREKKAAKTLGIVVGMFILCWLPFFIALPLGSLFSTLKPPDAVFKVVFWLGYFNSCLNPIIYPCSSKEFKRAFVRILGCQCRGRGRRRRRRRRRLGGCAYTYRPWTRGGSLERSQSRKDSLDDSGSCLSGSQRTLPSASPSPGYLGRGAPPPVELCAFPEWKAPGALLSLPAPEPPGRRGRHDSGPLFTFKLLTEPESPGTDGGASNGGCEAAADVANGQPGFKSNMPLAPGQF

[13] = biological target: human α1d adrenergic receptor (Homo sapiens, UniProt P25100); test: Cross-reactivity binding, cloned human α1d receptor
[14] = biological target: human α1a adrenergic receptor (Homo sapiens, UniProt P35348); test: Cross-reactivity binding, cloned human α1a receptor
[15] = biological target: human 5-HT7 receptor (Homo sapiens, UniProt P34969); test: Cross-reactivity binding, human 5-HT7 receptor
[16] = biological target: human dopamine D3 receptor (Homo sapiens, UniProt P35462); test: Cross-reactivity binding, human dopamine D3 receptor
human dopamine D3 receptor, sequence (P35462 whole entry): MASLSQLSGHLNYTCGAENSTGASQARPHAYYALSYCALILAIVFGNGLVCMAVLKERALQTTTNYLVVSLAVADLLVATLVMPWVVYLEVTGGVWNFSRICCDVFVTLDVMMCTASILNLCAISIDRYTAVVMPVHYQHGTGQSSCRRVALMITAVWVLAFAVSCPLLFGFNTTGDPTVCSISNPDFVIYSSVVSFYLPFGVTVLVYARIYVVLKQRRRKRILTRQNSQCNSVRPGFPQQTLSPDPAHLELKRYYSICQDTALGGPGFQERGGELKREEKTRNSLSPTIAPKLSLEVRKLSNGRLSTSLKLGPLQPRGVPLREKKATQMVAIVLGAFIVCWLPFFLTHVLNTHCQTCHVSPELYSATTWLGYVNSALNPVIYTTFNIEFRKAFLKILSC

[17] = biological target: 5HT1a (Homo sapiens, UniProt P08908); test: Cross-reactivity binding, human 5HT1a receptor
5HT1a, sequence (P08908 whole entry): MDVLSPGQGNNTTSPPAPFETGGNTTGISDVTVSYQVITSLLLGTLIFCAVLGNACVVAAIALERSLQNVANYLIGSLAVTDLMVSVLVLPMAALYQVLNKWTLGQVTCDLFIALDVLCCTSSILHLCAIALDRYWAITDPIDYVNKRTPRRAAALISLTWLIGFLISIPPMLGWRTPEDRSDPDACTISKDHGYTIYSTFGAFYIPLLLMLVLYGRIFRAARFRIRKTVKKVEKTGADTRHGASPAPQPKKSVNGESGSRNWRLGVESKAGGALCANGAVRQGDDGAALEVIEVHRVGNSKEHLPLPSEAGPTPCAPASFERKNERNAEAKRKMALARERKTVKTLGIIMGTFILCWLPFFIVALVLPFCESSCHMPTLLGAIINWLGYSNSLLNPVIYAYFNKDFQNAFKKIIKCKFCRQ

[18] = biological target: human 5HT2 receptor (Homo sapiens, UniProt P28223); test: Cross-reactivity binding, human 5HT2 receptor
human 5HT2 receptor, sequence (P28223 whole entry): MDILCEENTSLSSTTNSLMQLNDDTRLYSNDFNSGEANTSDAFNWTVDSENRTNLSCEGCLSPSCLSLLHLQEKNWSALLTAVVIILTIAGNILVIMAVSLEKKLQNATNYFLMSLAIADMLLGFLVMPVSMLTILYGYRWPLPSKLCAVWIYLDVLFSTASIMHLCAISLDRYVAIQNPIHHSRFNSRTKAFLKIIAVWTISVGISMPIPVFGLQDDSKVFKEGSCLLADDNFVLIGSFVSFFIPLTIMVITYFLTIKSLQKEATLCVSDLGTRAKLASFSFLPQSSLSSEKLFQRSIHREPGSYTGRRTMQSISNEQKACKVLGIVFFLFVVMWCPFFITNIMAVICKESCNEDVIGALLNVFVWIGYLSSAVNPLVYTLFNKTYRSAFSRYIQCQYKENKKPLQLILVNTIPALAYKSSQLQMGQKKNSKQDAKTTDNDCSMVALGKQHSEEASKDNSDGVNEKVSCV

[19] = biological target: canine Y5 receptor; test: Porcine ^125I-PYY binding to canine Y5 receptor (COS-7 membranes); details: COS-7 transient, Table 20 prints no unit, nM
[20] = biological target: T2, human Y2 receptor; test: ^125I-PYY binding to cloned human Y2 receptor (COS-7 membranes); details: cloned human Y-type receptors; expression system not given
[21] = biological target: T4, rat Y2 receptor (Rattus norvegicus, UniProt Q9ERC0); test: ^125I-PYY binding to cloned rat Y2 receptor (COS-7 membranes); details: cloned rat Y-type receptors; expression system not given
T4 sequence (Q9ERC0 1-381): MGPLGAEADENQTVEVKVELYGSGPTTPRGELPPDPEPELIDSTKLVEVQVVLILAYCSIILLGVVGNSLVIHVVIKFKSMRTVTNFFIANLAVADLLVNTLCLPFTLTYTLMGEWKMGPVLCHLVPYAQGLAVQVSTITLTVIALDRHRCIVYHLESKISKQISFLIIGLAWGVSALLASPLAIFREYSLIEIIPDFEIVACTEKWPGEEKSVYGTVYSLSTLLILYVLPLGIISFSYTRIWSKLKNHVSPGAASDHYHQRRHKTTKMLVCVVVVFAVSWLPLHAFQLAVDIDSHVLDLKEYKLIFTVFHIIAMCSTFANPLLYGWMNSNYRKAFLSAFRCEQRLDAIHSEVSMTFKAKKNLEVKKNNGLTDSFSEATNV

[22] = biological target: rat Y4 receptor (Rattus norvegicus, UniProt Q63447); test: ^125I-PYY binding to cloned rat Y4 receptor (COS-7 membranes); details: cloned rat Y-type receptors; expression system not given
rat Y4 receptor, sequence (Q63447 whole entry): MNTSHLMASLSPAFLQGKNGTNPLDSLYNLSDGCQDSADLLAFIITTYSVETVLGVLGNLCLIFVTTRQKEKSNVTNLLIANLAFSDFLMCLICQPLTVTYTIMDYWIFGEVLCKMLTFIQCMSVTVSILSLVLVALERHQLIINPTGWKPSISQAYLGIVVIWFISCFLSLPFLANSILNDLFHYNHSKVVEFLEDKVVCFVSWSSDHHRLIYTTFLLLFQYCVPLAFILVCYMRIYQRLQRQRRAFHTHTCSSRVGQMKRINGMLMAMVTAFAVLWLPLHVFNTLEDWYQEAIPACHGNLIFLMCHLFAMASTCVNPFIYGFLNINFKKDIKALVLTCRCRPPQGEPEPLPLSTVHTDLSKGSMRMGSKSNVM

[23] = biological target: T1, human Y4 receptor; test: ^125I-PYY binding to cloned human Y4 receptor (COS-7 membranes); details: cloned human Y-type receptors; expression system not given
[24] = biological target: T4, rat Y2 receptor; test: Antagonism of NPY- or PP-induced activation of rat Y2 receptors; assay type: cell-based; set-up: expressed in transfected cells; details: rat Y2, concentrations up to 1 μM

T1 sequence (P50391 whole entry): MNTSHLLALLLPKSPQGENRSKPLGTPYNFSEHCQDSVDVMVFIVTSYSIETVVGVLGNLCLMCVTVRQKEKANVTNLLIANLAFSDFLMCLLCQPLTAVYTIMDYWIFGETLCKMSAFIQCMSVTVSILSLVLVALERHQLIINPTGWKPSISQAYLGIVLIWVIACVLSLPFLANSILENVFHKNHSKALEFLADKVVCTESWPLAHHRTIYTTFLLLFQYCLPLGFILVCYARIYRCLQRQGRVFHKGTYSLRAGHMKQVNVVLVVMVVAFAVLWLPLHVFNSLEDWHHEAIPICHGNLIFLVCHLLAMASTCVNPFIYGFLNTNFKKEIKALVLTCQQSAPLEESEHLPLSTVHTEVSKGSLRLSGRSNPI
human Y1 receptor, sequence (P25929 whole entry): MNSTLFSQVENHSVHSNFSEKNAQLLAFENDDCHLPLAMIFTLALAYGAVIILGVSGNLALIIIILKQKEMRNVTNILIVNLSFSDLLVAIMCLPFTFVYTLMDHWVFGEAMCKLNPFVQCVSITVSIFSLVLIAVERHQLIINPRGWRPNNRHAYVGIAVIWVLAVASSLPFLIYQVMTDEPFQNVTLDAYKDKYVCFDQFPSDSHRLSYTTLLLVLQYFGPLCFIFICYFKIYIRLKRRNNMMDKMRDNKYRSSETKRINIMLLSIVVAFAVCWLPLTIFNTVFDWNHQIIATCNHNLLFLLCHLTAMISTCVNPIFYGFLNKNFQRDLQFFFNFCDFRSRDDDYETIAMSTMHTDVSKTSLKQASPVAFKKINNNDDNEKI

“2-(Naphthalen-1-yl)-3-phenylpropane-1,2-diamine [Compound 28]” was tested, and the Ki ([1]; read-out: Binding Affinity (Ki (nM) vs. ^125I-PYY) Human Receptor Y4, stably transfected cells) was > 100000 nM, the Ki ([2]; read-out: Binding Affinity (Ki (nM) vs. ^125I-PYY) Human Receptor Y1, stably transfected 293 or LM(tk-) cells, compound 1 also COS-7 data) was > 100000 nM and the Ki ([3]; read-out: Binding Affinity (Ki (nM) vs. ^125I-PYY) Human Receptor Y2, stably transfected 293 or LM(tk-) cells, compound 1 also COS-7 data) was > 75000 nM.

In the case of CNS(=O)(=O)Cc1ccc(Nc2nc(Nc3ccccc3)c3ccccc3n2)cc1.Cl [Compound 11, N-Methyl-[4-(4-phenylamino-quinazolin-2-ylamino)-phenyl]-methanesulfonamide Hydrochloride], the “Receptor (pKi) 5HT1D2” value [4] is reported as 5.30, the “Receptor (pKi) 5HT1F” value [5] is reported as 5.30 and the Ki [3] is reported as > 100000 nM. The “Receptor (pKi) 5HT1Dα” value [6] was 5.30 and the “Receptor (pKi) 5HT1E” value [7] was 5.30.

O=S(=O)(NC[C@H]1CC[C@H](CNC(CO)Cc2ccc(Cl)cc2)CC1)c1cccc2ccccc12 (stereo partly drawn) [Compound 25, Naphthalene-1-sulfonic Acid trans-(4-{[2-(4-Chlorophenyl)-1-hydroxymethyl-ethylamino]-methyl}cyclohexylmethyl)-amide] showed a Ki [5] of 5.01 µM and a Ki [7] of 5.01 µM.

For COc1ccc(Nc2nc(Nc3ccccc3)c3cccc(OC)c3n2)cc1.Cl [Compound 9, 8-Methoxy-2-(4-methoxy-phenylamino)-4-phenylamino-quinazoline Hydrochloride], the “Receptor (pKi) 5HT1D2” value [4] was 5.30, the “Receptor (pKi) 5HT1F” value [5] was 5.30 and the Ki [3] was > 100000 nM. The “Receptor (pKi) 5HT1Dα” value [6] was 5.30 and the “Receptor (pKi) 5HT1E” value [7] was 5.30.

“NPY: neuropeptide Y; porcine NPY, 300 pmole i.c.v., in the feeding studies” was tested, and the “effect on food intake vs vehicles” value [8] was “significantly induce food intake”.

In the case of CC(=O)O[C@H]1CC[C@H](Nc2nc(Nc3ccccc3)c3ccccc3n2)CC1 [Compound 7, trans-2-(4-Acetoxy-cyclohexylamino)-4-phenylamino-quinazoline Hydrochloride], the Ki [9] is reported as 0.0692 µM, the Ki [10] is reported as 0.141 µM and the Ki [11] is reported as 0.813 µM. The Ki [1] was 7050 nM, the Ki [12] was 0.832 µM and the Ki [4] was 5.01 µM. The Ki [5] was 5.01 µM, the Ki [2] was 2170 nM and the Ki [13] was 0.347 µM. It also gave a Ki [14] of 0.871 µM, a Ki [3] of 2870 nM and a Ki [6] of 1.41 µM. The Ki [7] was 5.01 µM and the Ki [15] was 0.229 µM.

With Cl.c1ccc(Nc2nc(Nc3ccccc3)c3ccccc3n2)cc1 [Compound 1, 2,4-Diphenylamino-quinazoline Hydrochloride] the Ki [16] was 2.04 µM, the Ki [17] was 30.9 µM and the “Receptor (pKi) 5HT1D2” value [4] was 5.30. The “Receptor (pKi) 5HT1F” value [5] was 5.30, the Ki [18] was 0.457 µM and the “Receptor (pKi) 5HT1E” value [7] was 5.30.

For CNS(=O)(=O)Cc1ccc(Nc2nc(Nc3ccccc3)c3cc(OC)ccc3n2)cc1.Cl [Compound 10, N-Methyl-[4-(6-methoxy-4-phenylamino-quinazolin-2-ylamino)-phenyl]-methanesulfonamide Hydrochloride], the “Receptor (pKi) 5HT1D2” value [4] was 5.30, the “Receptor (pKi) 5HT1F” value [5] was 5.30 and the Ki [3] was > 100000 nM. The “Receptor (pKi) 5HT1Dα” value [6] was 5.30 and the “Receptor (pKi) 5HT1E” value [7] was 5.30.

NC(N)=NCCC[C@@H](NC(=O)C(c1ccccc1)c1ccccc1)C(=O)NCc1ccc(O)cc1 [BIBP 3226] was tested, and the Ki [19] was 17000 nM, the Ki [20] was 6.9 µM and the Ki [21] was 66 µM. For the same compound, the Ki [22] was 0.42 µM, the Ki [23] was 8 µM and the “antagonism of NPY- or PP-induced activation” value [24] was “no evidence for antagonism”.

In the case of Cl.Nc1nc(NC[C@H]2CC[C@H](CNS(=O)(=O)c3cccc4ccccc34)CC2)nc2ccccc12 [Compound 5, trans-Naphthalene-1-sulfonic Acid {4-[(4-amino-quinazolin-2-ylamino)-methyl]-cyclohexylmethyl}-amide Hydrochloride], the Ki ([16]; cloned human receptor, read-out: Receptor (pKi) D3 (converted)) is reported as 0.0575 µM, the Ki ([17]; cloned human receptor, read-out: Receptor (pKi) 5HT1a (converted)) is reported as 0.468 µM and the “Receptor (pKi) 5HT1F” value [5] is reported as 5.30. For the same compound, the Ki ([18]; cloned human receptor, read-out: Receptor (pKi) 5HT2 (converted)) was 0.389 µM and the “Receptor (pKi) 5HT1E” value [7] was 5.30.

With Cl.Cl.c1ccc(Nc2nc(Nc3ccc(N4CCCCC4)cc3)nc3ccccc23)cc1 [Compound 6, 2-[4-(Piperidin-1-yl)-phenylamino]-4-phenylamino-quinazoline Dihydrochloride] the Ki [10] was 0.437 µM, the “Receptor (pKi) 5HT1D2” value [4] was 5.30 and the “Receptor (pKi) 5HT1F” value [5] was 5.30. For the same compound, the “Receptor (pKi) 5HT1Dα” value [6] was 5.30 and the “Receptor (pKi) 5HT1E” value [7] was 5.30.

For Cl.O=S(=O)(NC[C@H]1CC[C@H](CNCC2CCc3ccccc3C2)CC1)c1cccc2ccccc12 (some centres unmarked) [Compound 19], the “Receptor (pKi) 5HT1D2” value [4] was 5.30, the “Receptor (pKi) 5HT1F” value [5] was 5.30 and the “Receptor (pKi) 5HT1E” value [7] was 5.30.

For Cl.O=[N+]([O-])c1ccccc1S(=O)(=O)NC[C@H]1CC[C@H](CNCC2CCc3ccccc3C2)CC1 (some centres unmarked) [Compound 20], the “Receptor (pKi) 5HT1F” value [5] was 5.30 and the “Receptor (pKi) 5HT1E” value [7] was 5.30.

From US6645774B1 (Synaptic Pharmaceutical Corporation, priority 1994, dated 2003)
